Results as given in patent publication US11035851B2, “Method of identifying cosmetic agents for moisturizing skin” (The Procter & Gamble Company, priority 2016, dated 2021).

Tested on: epidermal gene expression (GeneTitan U219 probes)
Assay: Genomic evaluation of LCM-derived epidermal samples before vs. after surfactant (SLS) challenge, leg controlled application test
Format: in vivo, human
Conditions: for Significant Beyond Chance / Number of Probes (significantly different): summer, after 5 day 1% SLS treatment vs. baseline; for Number of Probes (significantly different): p<0.05, approximately 2465 probes expected by chance
Procedure: 25 ng of purified RNA is converted to biotin-labeled cRNA copies using the Affymetrix HT 3′ IVT Express kit (Cat. #901253) and protocol provided as executed on a Beckman Biomek® FX^p Laboratory Automation Workstation (Beckman Cat. #A31842), or equivalent. In brief, 500 ng of total RNA is reverse-transcribed into cDNA copies using oligo-dT primers and reverse transcriptase followed by second strand synthesis using DNA polymerase I. Following purification, the cDNA library is used as a template for generating biotin-labeled cRNA copies using T7 RNA polymerase and biotinylated dUTP. Biotinylated cRNA is fragmented by limited alkaline hydrolysis and then hybridized overnight to Affymetrix GeneTitan® U219 array plates using the Affymetrix GeneTitan® instrument and protocol provided. Following processing, chip images are converted to numeric data using the PLIER algorithm as executed in the Affymetrix GeneChip Expression Console.
A clinical study was conducted to conduct a genomic evaluation of subjects with inherently dry skin versus subjects with inherently normal moisturized skin in the winter season (phase 1) and summer season (phase 2. The clinical study design for each phase was a leg controlled application test (LCAT) protocol. The phase 2 portion of the test also included a determination of genomic differences between subjects that are treated with a drying agent (“surfactant challenged”).
Phase 2 clinical design: human subjects from phase 1 were recalled during the summer season (i.e., June-August) and maintained in their respective cohort groups. A cohort of 29 subjects was recalled for the inherently dry skin group, while a cohort of 12 subjects was recalled for the inherently normal moisturized skin group. All subjects were pre-conditioned with Olay® soap bar for 7 days (days −7 to −1) followed by a 2 day regression. Subjects were instructed to abstain from washing their legs with any products and from using any leave-on products on their legs during the pretreatment period. Dry Skin Grade measurements, full thickness biopsies, and other skin health measurements (e.g., TEWL) were taken on day 1. Subjects with a dry skin score of greater than 4.0 were excluded from biopsies. The full thickness biopsies were later separated into epidermal and dermal sections via LCM, and the epidermal section was used for genomic analysis.
On days 3-7 (5 consecutive days) subjects who have a Dryness Grade less than 3.0 on one or both legs continue on the study, all other subjects were excused from the study. The clinical staff conducted visual grading at a site adjacent to the biopsy site, followed by a surfactant challenge (i.e., treating the site with 1% sodium lauryl sulfate (“SLS”) solution and occluding the site with a Hill Top Chamber® brand occlusive patch test system for 30 minutes). Each day the dryness was visually graded prior to the SLS treatment. On day 8 (24 hrs. following Day 7), bio-instruments measures were taken, but biomarkers and biopsies were only taken if the surfactant challenged site has a Dryness Grade below 4.0.
Results: 237 LCM-derived epidermal samples were processed on GeneTitan® U219 chips as described above. Of these, 11 were statistical outliers that were eliminated from the data set. For purposes of statistical treatment, the left and right leg samples from each subject, at each phase of the study, were considered replicates. An ANOVA model was used to determine group differences.

[1] = P2 D5 Dry vs. P2 BL Dry: inherently dry skin
[2] = P2 D5 Healthy vs. P2 BL Healthy: inherently normal moisturized skin

In the case of CCCCCCCCCCCCOS(=O)(=O)[O-].[Na+] [SLS, sodium lauryl sulfate], the “Significant Beyond Chance” value [1] is reported as “Yes”, the “Number of Probes (significantly different)” value [1] is reported as 10696 and the “Significant Beyond Chance” value [2] is reported as “Yes”. For the same molecule, the “Number of Probes (significantly different)” value [2] was 6110 and the “Difference in probe expression, paired (within-group) comparison before vs. after SLS treatment” value (within dry skin or normal/healthy skin groups, summer phase) was “significant differences”.
